Laboratory results reported in patent US6235891A, “Glucocorticoid receptor agonist and decreased PP5” (South Alabama Medical Science Foundation, priority 1999, dated 2001).

Legend:
A549 cells = test: A549 cell proliferation (viable cell counts); assay type: cell-based, human; conditions: for Decrease in proliferation compared to control: 300 nM; for Growth arrest: p53 wild-type A549 cells, dexamethasone single dose 100 nM, counted six days
Experimental: A549 cells were treated with ISIS 15534 or its scrambled control, ISIS 15521 at a concentration of 300 nM. Each day for the next 5 days, viable cells were counted.
A549 cells were seeded in 12-well tissue culture plates at about 50% confluence in DMEM containing 10% fetal bovine serum. The next day, cells were treated with the PP5-specific antisense oligonucleotide, ISIS 15534, or its scrambled control, ISIS 15521, at a final concentration of 300 nM as described in Example 7. On each of the following 5 days, cultures from three wells of each treatment gruop were trypsinized, collected and counted. Cell viability was determined by trypan blue staining, and the results given are the mean of three independent experiments.
A549 cells were seeded in 12-well tissue culture plates at a density of 5.0×10^4 cell/dish. On the next day, the cells were treated with PP5 specific antisense oligonucleotides (ISIS 15534) or the scrambled mismatch control (ISIS 15521) at a final concentration of 300 nM as described above. On each of the next five days, the cell cultures were treated briefly with trypsin to detach the cells from the dish (three wells from each test group). The number of cells was then determined by counting using a hemacytometer. Cell viability was determined with trypan blue staining. The percentage of viable cells was calculated by dividing the number of cells excluding trypan blue by the total number of cells, and the results are reported as the mean +/- SD of data collected from three independent experiments.
(§1) The antiproliferative effect of dexamethasone correlates with the presence of wild type p53 and the expression of p21^Waf1/Cip1 mRNA. Referring to FIGS. 1A-1C, the effect of dexamethasone on cell proliferation in p53-defective T-24 human bladder carcinoma, p53-null TR9 human fibroblasts (Webster et al. 1993; Maiyar et al. 1996), and p53 wild-type A549 human lung carcinoma cells was determined by treating cells in log-phase growth with a single dose of 100 nM dexamethasone and counting the number of cells in treated (.cndot.) and untreated (.box-solid.) cultures for six consecutive days following treatment. Each point represents the mean of triplicate dishes with error bars representing SE. Under similar conditions, treatment with ISIS 15534, a potent inhibitor of PP5 gene expression, inhibited growth in A459 but not T-24 or TR9 cells (Zuo et al. 1998). Referring to FIG. 1D, a comparison of p21^Waf1/Cip1 (p21) and serum glucocorticoid inducible protein kinase (sgk) mRNA levels in p53 competent (Lanes 3, 4) and p53 deficient (Lanes 1, 2, 5, 6) cell cultures after dexamethasone treatment is shown. Cell cultures in logphase growth were treated with 100 nM dexamethasone (+) or vehicle alone as a control (-). After 24 hours total mRNA was prepared and analyzed for p21 and sgk mRNA levels by Northern analysis.

[1] = system: p53-defective T-24 human bladder carcinoma cells; test: T-24 cell proliferation (cell counts); assay type: cell-based; conditions: p53-defective T-24 cells; dexamethasone single dose 100 nM, counted six days
Experimental: as §1

[2] = system: p53-null TR9 human fibroblasts; test: TR9 cell proliferation (cell counts); assay type: cell-based; conditions: dexamethasone single dose 100 nM, counted six days
Experimental: as §1

p21^Waf1/Cip1 mRNA [3] = test: Northern analysis of p21Waf1/Cip1 mRNA in A549 cells; assay type: cell-based, human; conditions: dexamethasone 100 nM, 24 hours
Experimental: The cells were harvested, and total RNA was extracted with TRIzol® Reagent according to the methods of the manufacturer. Total RNA (20 μg) was fractionated on 1% agarose gels containing formaldehyde and transferred to DURLON-UV nylon membranes (Stratagene). Following UV cross-linking, the filters were hybridized with a [α^32 P]probe for human PP5. […] Hybridization was performed in the presence of 50% formamide, 0.1 M Pipes, 0.8 M NaCl, 5×Denhardt's solution, 100 μg/ml denatured herring sperm DNA, 1×10^6 cpm/ml [α-^32 P]-labeled probe and 10% dextran sulfate at 42° C. for 16 hours. […] Quantification of hybridization signals was achieved by analysis of the scanned autoradiograms using the NIH Image program (ImagePC).
Referring to FIG. 1D, a comparison of p21^Waf1/Cip1 (p21) and serum glucocorticoid inducible protein kinase (sgk) mRNA levels in p53 competent (Lanes 3, 4) and p53 deficient (Lanes 1, 2, 5, 6) cell cultures after dexamethasone treatment is shown. […] After 24 hours total mRNA was prepared and analyzed for p21 and sgk mRNA levels by Northern analysis.
After 24 hours, 20 μg of total RNA was prepared and analyzed for serine/threonine protein phosphatase 5 (PP5), p21^Waf1/Cip1 (p21), and serum/glucocorticoid inducible kinase (sgk) mRNA levels. […]

p21^Waf1/Cip1 mRNA [4] = test: Northern analysis of p21Waf1/Cip1 mRNA in T-24 cells; assay type: cell-based, human; conditions: dexamethasone 100 nM, 24 hours
Experimental: (§2) The cells were harvested, and total RNA was extracted with TRIzol® Reagent according to the methods of the manufacturer. Total RNA (20 μg) was fractionated on 1% agarose gels containing formaldehyde and transferred to DURLON-UV nylon membranes (Stratagene). Following UV cross-linking, the filters were hybridized with a [α^32 P]probe for human PP5. The human PP5 cDNA probe was generated from the full length coding region of PP5 and [α^32 P]-dATP was labeled with DECAprime® DNA Labeling Kit according to the manufacturer's protocol. […] Quantification of hybridization signals was achieved by analysis of the scanned autoradiograms using the NIH Image program (ImagePC). […]
(§3) The antiproliferative effect of dexamethasone correlates with the presence of wild type p53 and the expression of p21^Waf1/Cip1 mRNA. Referring to FIGS. 1A-1C, the effect of dexamethasone on cell proliferation in p53-defective T-24 human bladder carcinoma, p53-null TR9 human fibroblasts (Webster et al. 1993; Maiyar et al. 1996), and p53 wild-type A549 human lung carcinoma cells was determined by treating cells in log-phase growth with a single dose of 100 nM dexamethasone and counting the number of cells in treated (.cndot.) and untreated (.box-solid.) cultures for six consecutive days following treatment. […] After 24 hours total mRNA was prepared and analyzed for p21 and sgk mRNA levels by Northern analysis.

p21^Waf1/Cip1 mRNA [5] = test: Northern analysis of p21Waf1/Cip1 mRNA in TR9 cells; assay type: cell-based, human; conditions: dexamethasone 100 nM, 24 hours
Experimental: as §2, §3

[6] = system: GR luciferase reporter plasmid MMTV-luc; test: MMTV-Luc glucocorticoid-responsive luciferase reporter assay in A549 cells; assay type: cell-based, human; conditions: 300 nM ISIS 15534 without dexamethasone, dexamethasone ≥100 nM for 2 hours
Experimental: Transfections and luciferase assays were conducted as described by Jones et al. (1996) using a mouse mammary tumor virus-luciferase reporter plasmid (MMTV-Luc). […] Briefly, A549 cells were transfected in serum-free medium with 1 μg MMTV-Luc plasmid DNA per 60 mm dish using 15 μg/ml Lipofectin. ODNs were added into the transfection media wherever applicable. After a 4-hour incubation, the medium was replaced with fresh complete culture medium, and the cells were cultured overnight. The cells were then treated with different amounts of dexamethasone for two hours. Cell extracts were prepared with reporter lysis buffer (Promega). […] Light production was measured for 20 seconds at 562 nm using a Monolight 2010 luminometer (Analytical Luminescence Lab., San Diego, Calif.). To control for difference in transfection efficiency, contransfections were performed with 1 μg of a plasmid encoding β-galactosidase controlled by the SV40 virus promoter (pSV-β-GAL). β-GAL activity was measured in 150 μl cell extracts using the β-Galactosidase Enzyme Assay System (Promega).
A549 cells were transiently transfected with GR luciferase reporter plasmid, MMTV-luc (Jones et al. 1996). […] The relative light units of the cell extract were calculated as an average of three independent experiments, performed in triplicate, and presented as relative luciferase activity with error bars indicating SD.

## ISIS 15534: chimeric PP5 antisense oligonucleotide, P=O wings, P=S deoxy gap; GGGCCCTATTGCTTGAGTGG, SEQ ID NO: 12 (sugars by position and backbone not given here; chimeric, phosphodiester wings, phosphorothioate deoxy gap)
A549 cells; day 2
  Decrease in proliferation compared to control: 55%
A549 cells; day 3
  Decrease in proliferation compared to control: 75%
A549 cells; day 4
  Decrease in proliferation compared to control: 89%
A549 cells; day 5
  Decrease in proliferation compared to control: 55%
A549 cells
  Growth arrest: produced growth arrest
[1]
  Growth arrest: neither ISIS 15534 nor dexamethasone induced
[2]
  Growth arrest: neither ISIS 15534 nor dexamethasone induced
p21^Waf1/Cip1 mRNA [3]
  Expression of p21^Waf1/Cip1: concomitant increase in the expression of p21^Waf1/Cip1
p21^Waf1/Cip1 mRNA [4]
  Expression of p21^Waf1/Cip1: neither ISIS 15534 nor dexamethasone induced
p21^Waf1/Cip1 mRNA [5]
  Expression of p21^Waf1/Cip1: neither ISIS 15534 nor dexamethasone induced
[6]
  GR-reporter plasmid activation: induces glucocorticoid-mediated transcriptional activation

## C[C@@H]1C[C@H]2[C@@H]3CCC4=CC(=O)C=C[C@]4(C)[C@@]3(F)[C@@H](O)C[C@]2(C)[C@@]1(O)C(=O)CO [dexamethasone, reference compound]
A549 cells; dexamethasone ≥100 nM
  A549 cell growth when expression of p53 is suppressed with ISIS 8345: partially inhibit
A549 cells
  Growth arrest: produced growth arrest
[1]
  Growth arrest: neither ISIS 15534 nor dexamethasone induced
[2]
  Growth arrest: neither ISIS 15534 nor dexamethasone induced
p21^Waf1/Cip1 mRNA [3]
  Expression of p21^Waf1/Cip1: concomitant increase in the expression of p21^Waf1/Cip1
p21^Waf1/Cip1 mRNA [4]
  Expression of p21^Waf1/Cip1: neither ISIS 15534 nor dexamethasone induced
p21^Waf1/Cip1 mRNA [5]
  Expression of p21^Waf1/Cip1: neither ISIS 15534 nor dexamethasone induced
[6]
  GR-reporter plasmid activation: more pronounced
